Measured values from patent publication US6737383B1, “Herbicidal oxadiazolidines” (priority 1999, dated 2004).

Columns and labels:
corn = assay: Test B pre/postemergence corn; type: in vivo, Zea mays
Outline: (§1)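 Response is a visual 0-to-10 score relative to untreated plants, where 0 means no effect and 10 means complete control, taken twelve to sixteen days after application. Treatments went onto soil at planting and onto foliage of 1- to 4-leaf plants, using a surfactant-containing non-phytotoxic solvent.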

soybean = assay: Test B pre/postemergence soybean; type: in vivo, Glycine max
Outline: as §1

velvetleaf = assay: Test B pre/postemergence velvetleaf; type: in vivo, Abutilon theophrasti
Outline: as §1

bedstraw = assay: Test B pre/postemergence bedstraw; type: in vivo, Galium aparine
Outline: as §1

blackgrass = assay: Test B pre/postemergence blackgrass; type: in vivo, Alopecurus myosuroides
Outline: as §1

crabgrass = assay: Test B pre/postemergence crabgrass; type: in vivo, Digitaria sanguinalis
Outline: as §1

purple nutsedge = assay: Test B pre/postemergence purple nutsedge; type: in vivo, Cyperus rotundus
Outline: as §1

sugar beet = assay: Test B pre/postemergence sugar beet; type: in vivo, Beta vulgaris
Outline: as §1

rape = assay: Test B pre/postemergence rape; type: in vivo, Brassica napus
Outline: as §1

morningglory = assay: Test B pre/postemergence morningglory; type: in vivo, Ipomoea hederacea
Outline: as §1

wild oat = assay: Test B pre/postemergence wild oat; type: in vivo, Avena fatua
Outline: as §1

wheat = assay: Test B pre/postemergence wheat; type: in vivo, Triticum aestivum
Outline: as §1

pigweed = assay: Test B pre/postemergence pigweed; type: in vivo, Amaranthus retroflexus
Outline: as §1

cocklebur = assay: Test B pre/postemergence cocklebur; type: in vivo, Xanthium strumarium
Outline: as §1

surinam grass = assay: Test B pre/postemergence surinam grass; type: in vivo, Brachiaria decumbens
Outline: as §1

giant foxtail = assay: Test B pre/postemergence giant foxtail; type: in vivo, Setaria faberii
Outline: as §1

[1] = Postemergence, Rate 62 g/ha, scale 0 to 10, 0 is no effect, 10 is complete control
[2] = Postemergence, Rate 125 g/ha, scale of 0 to 10 where 0 is no effect and 10 is complete control
[3] = Postemergence, Rate 500 g/ha, scale 0 (no effect) to 10 (complete control)
[4] = Preemergence, Rate 125 g/ha, scale of 0 to 10 where 0 is no effect and 10 is complete control
[5] = Preemergence, Rate 250 g/ha, scale 0 (no effect) to 10 (complete control)
[6] = Rate 62 g/ha, Preemergence, scale 0 to 10
[7] = Rate 250 g/ha, Postemergence, scale 0 to 10, 0 is no effect, 10 is complete control
[8] = Rate 500 g/ha, Preemergence, scale 0 to 10 (0 no effect, 10 complete control)

## CC(C)N(C(=O)n1oc(=O)n(CCN(C)C(=O)c2ccccc2)c1=O)c1ccc(F)cc1F [Compound 762]
corn; [1]
  Plant response rating, Corn: 0
corn; [2]
  Corn plant response rating: 0
corn; [3]
  Corn plant response rating: 2
corn; [4]
  Plant response rating, Corn: 0
corn; [5]
  Corn plant response rating: 0
corn; [6]
  Corn plant response rating: 0
corn; [7]
  Corn plant response rating: 2
corn; [8]
  Corn plant response rating: 0
soybean; [1]
  Plant response rating, Soybean: 2
soybean; [3]
  Soybean plant response rating: 4
soybean; [4]
  Plant response rating, Soybean: 0
soybean; [5]
  Soybean plant response rating: 0
soybean; [6]
  Soybean plant response rating: 0
soybean; [7]
  Soybean plant response rating: 4
soybean; [8]
  Soybean plant response rating: 0
velvetleaf; [1]
  Plant response rating, Velvetleaf: 0
velvetleaf; [3]
  Velvetleaf plant response rating: 3
velvetleaf; [4]
  Plant response rating, Velvetleaf: 0
velvetleaf; [5]
  Velvetleaf plant response rating: 0
velvetleaf; [6]
  Velvetleaf plant response rating: 0
velvetleaf; [7]
  Velvetleaf plant response rating: 3
velvetleaf; [8]
  Velvetleaf plant response rating: 5
bedstraw; [1]
  Plant response rating, Bedstraw: 0
bedstraw; [2]
  Bedstraw plant response rating: 0
bedstraw; [3]
  Bedstraw plant response rating: 0
bedstraw; [4]
  Plant response rating, Bedstraw: 0
bedstraw; [5]
  Bedstraw plant response rating: 0
bedstraw; [6]
  Bedstraw plant response rating: 0
bedstraw; [7]
  Bedstraw plant response rating: 0
bedstraw; [8]
  Bedstraw plant response rating: 0
blackgrass; [1]
  Plant response rating, Blackgrass: 0
blackgrass; [2]
  Blackgrass plant response rating: 0
blackgrass; [3]
  Blackgrass plant response rating: 0
blackgrass; [4]
  Plant response rating, Blackgrass: 0
blackgrass; [5]
  Blackgrass plant response rating: 7
blackgrass; [6]
  Blackgrass plant response rating: 0
blackgrass; [7]
  Blackgrass plant response rating: 0
blackgrass; [8]
  Blackgrass plant response rating: 9
crabgrass; [1]
  Plant response rating, Crabgrass: 0
crabgrass; [2]
  Crabgrass plant response rating: 0
crabgrass; [3]
  Crabgrass plant response rating: 8
crabgrass; [4]
  Plant response rating, Crabgrass: 4
crabgrass; [5]
  Crabgrass plant response rating: 4
crabgrass; [7]
  Crabgrass plant response rating: 3
crabgrass; [8]
  Crabgrass plant response rating: 0
Purple nutsedge; [1]
  Plant response rating, Nutsedge: 0
Purple nutsedge; [2]
  Nutsedge plant response rating: 0
Purple nutsedge; [3]
  Nutsedge plant response rating: 3
Purple nutsedge; [4]
  Plant response rating, Nutsedge: 0
Purple nutsedge; [5]
  Nutsedge plant response rating: 0
Purple nutsedge; [6]
  Nutsedge plant response rating: 0
Purple nutsedge; [7]
  Nutsedge plant response rating: 0
Purple nutsedge; [8]
  Nutsedge plant response rating: 6
Sugar beet; [1]
  Plant response rating, Sugarbeets: 0
Sugar beet; [3]
  Sugarbeets plant response rating: 6
Sugar beet; [4]
  Plant response rating, Sugarbeets: 0
Sugar beet; [5]
  Sugarbeets plant response rating: 4
Sugar beet; [6]
  Sugarbeets plant response rating: 0
Sugar beet; [7]
  Sugarbeets plant response rating: 6
Sugar beet; [8]
  Sugarbeets plant response rating: 4
rape; [1]
  Plant response rating, Rape: 0
rape; [3]
  Rape plant response rating: 0
rape; [4]
  Plant response rating, Rape: 0
rape; [5]
  Rape plant response rating: 0
rape; [6]
  Rape plant response rating: 0
rape; [7]
  Rape plant response rating: 0
rape; [8]
  Rape plant response rating: 0
morningglory; [1]
  Plant response rating, Morningglory: 0
morningglory; [2]
  Morningglory plant response rating: 2
morningglory; [3]
  Morningglory plant response rating: 2
morningglory; [4]
  Plant response rating, Morningglory: 0
morningglory; [5]
  Morningglory plant response rating: 0
morningglory; [6]
  Morningglory plant response rating: 0
morningglory; [7]
  Morningglory plant response rating: 2
morningglory; [8]
  Morningglory plant response rating: 0
Wild oat; [1]
  Plant response rating, Wild oats: 0
Wild oat; [3]
  Wild oats plant response rating: 2
Wild oat; [4]
  Plant response rating, Wild oats: 0
Wild oat; [5]
  Wild oats plant response rating: 0
Wild oat; [6]
  Wild oats plant response rating: 0
Wild oat; [7]
  Wild oats plant response rating: 0
Wild oat; [8]
  Wild oats plant response rating: 0
wheat; [1]
  Plant response rating, Wheat: 0
wheat; [3]
  Wheat plant response rating: 0
wheat; [4]
  Plant response rating, Wheat: 0
wheat; [5]
  Wheat plant response rating: 0
wheat; [6]
  Wheat plant response rating: 0
wheat; [7]
  Wheat plant response rating: 0
wheat; [8]
  Wheat plant response rating: 0
pigweed; [1]
  Plant response rating, Redroot pigweed: 0
pigweed; [2]
  Redroot pigweed plant response rating: 0
pigweed; [3]
  Redroot pigweed plant response rating: 6
pigweed; [4]
  Plant response rating, Redroot pigweed: 2
pigweed; [5]
  Redroot pigweed plant response rating: 3
pigweed; [6]
  Redroot pigweed plant response rating: 2
pigweed; [7]
  Redroot pigweed plant response rating: 6
pigweed; [8]
  Redroot pigweed plant response rating: 3
cocklebur; [1]
  Plant response rating, Cocklebur: 0
cocklebur; [2]
  Cocklebur plant response rating: 0
cocklebur; [3]
  Cocklebur plant response rating: 0
cocklebur; [4]
  Plant response rating, Cocklebur: 0
cocklebur; [5]
  Cocklebur plant response rating: 0
cocklebur; [6]
  Cocklebur plant response rating: 0
cocklebur; [7]
  Cocklebur plant response rating: 0
cocklebur; [8]
  Cocklebur plant response rating: 0
Surinam grass; [1]
  Plant response rating, B. signalgrass: 0
Surinam grass; [2]
  B. signalgrass plant response rating: 0
Surinam grass; Preemergence, Rate 62 g/ha, scale of 0 to 10 where 0 is no effect and 10 is complete control
  B. signalgrass plant response rating: 0
Surinam grass; [4]
  Plant response rating, B. signalgrass: 0
Surinam grass; [5]
  B. signalgrass plant response rating: 6
Surinam grass; [7]
  B. signalgrass plant response rating: 2
Surinam grass; Rate 500 g/ha, Postemergence, scale 0 to 10, 0 is no effect, 10 is complete control
  B. signalgrass plant response rating: 3
Surinam grass; [8]
  B. signalgrass plant response rating: 9
Giant foxtail; [2]
  Giant foxtail plant response rating: 0
Giant foxtail; [4]
  Plant response rating, Giant foxtail: 10
Giant foxtail; [5]
  Giant foxtail plant response rating: 9
Giant foxtail; [6]
  Giant foxtail plant response rating: 5
Giant foxtail; [7]
  Giant foxtail plant response rating: 8
Giant foxtail; [8]
  Giant foxtail plant response rating: 9
